The values below come from patent publication US12398119B2, “Piperazine azaspiro derivatives” (PFIZER INC., priority 2018, dated 2025).

This test deals with T1, Human M4 mAChR (Homo sapiens, UniProt P08173).
T1 construct: host or cells: HEK293 (Sor-L9 HEK293 human/M4/GloSensor Cell Clone Number 40)
T1 sequence (P08173 1-479): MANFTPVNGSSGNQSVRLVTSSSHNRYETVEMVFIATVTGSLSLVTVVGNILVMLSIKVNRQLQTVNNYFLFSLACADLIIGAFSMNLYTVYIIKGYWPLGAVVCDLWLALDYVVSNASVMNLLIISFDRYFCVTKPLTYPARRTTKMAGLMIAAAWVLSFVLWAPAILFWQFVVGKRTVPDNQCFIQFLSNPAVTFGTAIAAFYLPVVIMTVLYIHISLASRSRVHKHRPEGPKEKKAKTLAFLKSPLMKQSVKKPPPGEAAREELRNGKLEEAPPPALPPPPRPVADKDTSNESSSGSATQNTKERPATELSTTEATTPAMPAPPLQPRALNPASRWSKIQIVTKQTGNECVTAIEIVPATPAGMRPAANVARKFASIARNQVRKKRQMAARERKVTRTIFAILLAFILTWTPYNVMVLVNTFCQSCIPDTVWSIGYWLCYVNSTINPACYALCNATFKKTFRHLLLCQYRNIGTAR
Kind of test: Muscarinic hM4 Agonist GloSensor cAMP Assay. The class given is cell-based. As to the method:
Muscarinic hM4 Agonist GloSensor cAMP Assay Methods
Compounds were prepared in advance of the assay. Test compounds were solubilized in 100% dimethyl sulfoxide (DMSO, Sigma D8418) to a concentration of 30 mM. A 10-point intermediate dilution series using half log dilutions was created in 100% DMSO with a top concentration of 4 mM. The serially diluted compounds were spotted as 200 nL/well in a 384-well plate (Matrix Catalog Number 4325). The final compound concentration range in the assay was […] to 0.3 nM with a final DMSO concentration of 0.25%.
Human M4 mAChR expressing stable cell lines were generated using a parental HEK cell expressing the GloSensor construct (Promega Sor-L9 HEK293 human/M4/GloSensor Cell Clone Number 40). The cells were grown in 90% Dulbecco's Modified Eagle Medium (DMEM, Gibco 11960), 10% fetal bovine serum (FBS, Hyclone CH.30160-03), 1% Penicillin/Streptomycin (Gibco 15070-063), 500 µg/mL Geneticin (Gibco 10131-027), 200 µg/mL Hygromycin B (Invitrogen 10687-010) and 1% Glutamax (Thermo Fisher 35050061).
One day prior to assay, the cells were lifted using dissociation buffer (Gibco 13151-014) and spun in a centrifuge at 250 times gravity for 5 minutes at room temperature. Supernatant was removed and the cell pellet was resuspended in growth media to a concentration of […]. Cells were then added to white poly-d-lysine coated plates (Becton Dickinson 356661) as 40 μL per well (25,000 cells) and incubated overnight (20-24 hours) in a 37° C. humidified incubator with 5% carbon dioxide (C02).
The following day, culture media was removed from the cell plates and replaced with […] equilibration medium containing 88% CO2-independent medium (Invitrogen 18045088), 10% FBS and 2% GloSensor cAMP reagent (Promega E1291) that had been warmed to 37° C. Plates were then covered and incubated for 2 hours at room temperature while protected from light.
To the previously prepared serially diluted compound plates, 200 nL of 4 mM ACh (Sigma A2661, 10 μM final) or 200 nL of 100% DMSO (0.25% final) was added to the positive and negative control wells, respectively. Compound plates were then diluted by adding 16 μL of C02-independent media containing 10% FBS and an EC80 concentration of isoproterenol (Sigma 16504). Prior to compound testing, concentration response curves were run for isoproterenol to determine the EC80 concentration. At the end of the 2 hour equilibration, 10 µL was transferred from the compound plates to the cell plates. The cell plates were incubated an additional 7 minutes at room temperature and then read using a Multi-label EnVision plate reader (Perkin Elmer) for luminescence.
The raw data, expressed as relative light units, was analyzed using Activity Base (IDBS). The percent effect at each compound concentration was calculated based on and relative to the amount of cAMP produced by the positive and negative control wells contained on each assay plate. The positive control wells contained an EC100 concentration of ACh and the negative control wells contained only DMSO. The concentration and % effect values were fit using a four-parameter logistic dose response equation, and the concentration required for 50% effect (EC50) was determined as well as the maximum asymptote of the concentration response curve to define the efficacy.

[1] abbreviates: HEK293 human/M4/GloSensor cells, EC80 isoproterenol, geometric mean, number of determinations in parentheses, read-out: EC50.
[2] abbreviates: Emax: maximum asymptote of concentration response curve, relative to ACh positive control (EC100) and DMSO, geometric mean, read-out: % maximum effect.
Where [3] appears, read: enantiomers reported in footnotes to Table 1, number of determinations in parentheses, read-out: M4 EC50.
[4] abbreviates: enantiomers reported in footnotes to Table 1, number of determinations in parentheses, read-out: M4 Emax.

Where two headings read alike, the source gives them in different places. Where only a bound is given, the exact number is not on record here.

By EC50 is commonly meant the concentration giving half of the maximal effect. Consider `CCOC(=O)N1CC2(CCC(N3CCN(c4ncccc4-c4cnc(OC)cn4)CC3)C2)C1` (single isomer, unassigned) [Example 2, ethyl 6-{4-[3-(5-methoxypyrazin-2-yl)pyridin-2-yl]piperazin-1-yl}-2-azaspiro[3.4]octane-2-carboxylate], for which the EC50 under setting [1] is above 10000 nM.
As for `CCOC(=O)N1CC2(CCC(N3CCN(c4ncccc4-c4cnc(OC)cn4)CC3)C2)C1` (single isomer, unassigned) [Example 3, ethyl 6-{4-[3-(5-methoxypyrazin-2-yl)pyridin-2-yl]piperazin-1-yl}-2-azaspiro[3.4]octane-2-carboxylate], the Emax under setting [2] amounted to 83.7%. Moreover, the concentration for a half-maximal effect (EC50) under setting [1] is 3.87 nM.
On the same counts, the results for `CCOC(=O)N1CC2(CCC(N3CCN(c4cccnc4OC(F)F)CC3)C2)C1` (single isomer, unassigned) [Example 19, ethyl 6-{4-[2-(difluoromethoxy)pyridin-3-yl]piperazin-1-yl}-2-azaspiro[3.4]octane-2-carboxylate] are 78.4% and 1.45 nM.
Consider `CCOC(=O)N1CC2(CCC(N3CCN(c4cccnc4OC(F)(F)F)CC3)C2)C1` (single isomer, unassigned) [Example 20, ethyl 6-{4-[2-(trifluoromethoxy)pyridin-3-yl]piperazin-1-yl}-2-azaspiro[3.4]octane-2-carboxylate], for which the Emax under setting [2] stood at 75.3%. The EC50 under setting [1] is 9.9 nM.
On the same counts, the results for `CCOC(=O)N1CC2(CCC(N3CCN(c4ncccc4C)CC3)C2)C1` (single isomer, unassigned) [Example 21, ethyl 6-[4-(3-methylpyridin-2-yl)piperazin-1-yl]-2-azaspiro[3.4]octane-2-carboxylate] are 96.8% and 4.01 nM.
Taken in the same sequence, the figures for `CCOC(=O)N1CC2(CCC(N3CCN(c4ncccc4C4CC4)CC3)C2)C1` (single isomer, unassigned) [Example 22, ethyl 6-[4-[3-cyclopropylpyridin-2-yl)piperazin-1-yl]-2-azaspiro[3.4]octane-2-carboxylate] were 107% and below 0.074 nM.
As to `CCOC(=O)N1CCC2(CC(N3CCN(c4ncccc4-c4ccc(C#N)cn4)CC3)C2)C1` (single isomer, unassigned) [Example 23, ethyl 2-[4-(5-cyano-2,3′-bipyridin-2′-yl)piperazin-1-yl]-6-azaspiro[3.4]octane-6-carboxylate], the Emax under setting [2] amounted to 85%. Further, the EC50 under setting [1] stood at 143 nM.
Taken in the same sequence, the figures for `CCOC(=O)N1CC2(CCC(N3CCN(c4ncc(F)cc4-c4cscn4)CC3)C2)C1` (single isomer, unassigned) [Example 26, ethyl 6-{4-[5-fluoro-3-(1,3-thiazol-4-yl)pyridin-2-yl]piperazin-1-yl}-2-azaspiro[3.4]octane-2-carboxylate] were 59.8% and 26.4 nM.
On the same counts, the results for `CCOC(=O)N1CC2(CCC(N3CCN(c4nccnc4OC)CC3)C2)C1` (single isomer, unassigned) [Example 27, ethyl 6-[4-(3-methoxypyrazin-2-yl)piperazin-1-yl]-2-azaspiro[3.4]octane-2-carboxylate] are 25.1% and 11.4 nM.
As for `CCOC(=O)N1CC2(CCC(N3CCN(c4ncccc4-c4cnsn4)CC3)C2)C1` (single isomer, unassigned) [Example 34, ethyl 6-{4-[3-(1,2,5-thiadiazol-3-yl)pyridin-2-yl]piperazin-1-yl}-2-azaspiro[3.4]octane-2-carboxylate], the Emax under setting [2] turned out to be 96.2%. Moreover, under setting [1], the EC50 turned out to be 1.28 nM.
With `CCOC(=O)N1CC2(CCC(N3CCN(c4ncccc4-c4cnc(C#N)cn4)CC3)C2)C1` (single isomer, unassigned) [Example 41, ethyl 6-{4-[3-(5-cyanopyrazin-2-yl)pyridin-2-yl]piperazin-1-yl}-2-azaspiro[3.4]octane-2-carboxylate], the Emax under setting [2] is 82.4%. Further, under setting [1], the EC50 turned out to be 8.52 nM.
Take `CCOC(=O)N1CC2(CCC(N3CCN(c4cccnc4OC(F)F)CC3)C2)C1` (single isomer, unassigned) [enantiomer of Example 19, ethyl 6-{4-[2-(difluoromethoxy)pyridin-3-yl]piperazin-1-yl}-2-azaspiro[3.4]octane-2-carboxylate]: the concentration giving a half-maximal response (EC50) under setting [3] amounted to 201 nM. Also, the Emax under setting [4] was determined as 74%.
For the compound `CCOC(=O)N1CC2(CCC(N3CCN(c4cccnc4OC(F)(F)F)CC3)C2)C1` (single isomer, unassigned) [enantiomer of Example 20, ethyl 6-{4-[2-(trifluoromethoxy)pyridin-3-yl]piperazin-1-yl}-2-azaspiro[3.4]octane-2-carboxylate], the EC50 under setting [3] turned out to be 3600 nM. In addition, under setting [4], the Emax is 95.3%.
Take `CCOC(=O)N1CC2(CCC(N3CCN(c4ncccc4C)CC3)C2)C1` (single isomer, unassigned) [enantiomer of Example 21, ethyl 6-[4-(3-methylpyridin-2-yl)piperazin-1-yl]-2-azaspiro[3.4]octane-2-carboxylate]: under setting [3], the 50% effective concentration (EC50) was above 241 nM. The Emax under setting [4] was 76.2%.
As to `CCOC(=O)N1CC2(CCC(N3CCN(c4ncccc4C4CC4)CC3)C2)C1` (single isomer, unassigned) [enantiomer of Example 22, ethyl 6-[4-(3-cyclopropylpyridin-2-yl)piperazin-1-yl]-2-azaspiro[3.4]octane-2-carboxylate], under setting [3], the EC50 was found to be 11.6 nM. Moreover, the Emax under setting [4] was 103%.
For the compound `CCOC(=O)N1CCC2(CC(N3CCN(c4ncccc4-c4ccc(C#N)cn4)CC3)C2)C1` (single isomer, unassigned) [enantiomer of Example 23, ethyl 2-[4-(5-cyano-2,3′-bipyridin-2′-yl)piperazin-1-yl]-6-azaspiro[3.4]octane-6-carboxylate], the half-maximal effective concentration (EC50) under setting [3] is above 10000 nM.
For the compound `CCOC(=O)N1CC2(CCC(N3CCN(c4ncc(F)cc4-c4cscn4)CC3)C2)C1` (single isomer, unassigned) [enantiomer of Example 26, ethyl 6-{4-[5-fluoro-3-(1,3-thiazol-4-yl)pyridin-2-yl]piperazin-1-yl}-2-azaspiro[3.4]octane-2-carboxylate], under setting [3], the EC50 is 152 nM. For the same compound, under setting [4], the Emax came out at 67.1%.
As for `CCOC(=O)N1CC2(CCC(N3CCN(c4nccnc4OC)CC3)C2)C1` (single isomer, unassigned) [enantiomer of Example 27, ethyl 6-[4-(3-methoxypyrazin-2-yl)piperazin-1-yl]-2-azaspiro[3.4]octane-2-carboxylate], under setting [3], the EC50 is above 10000 nM.
Regarding `CCOC(=O)N1CC2(CCC(N3CCN(c4ncccc4-c4cnsn4)CC3)C2)C1` (single isomer, unassigned) [enantiomer of Example 34, ethyl 6-{4-[3-(1,2,5-thiadiazol-3-yl)pyridin-2-yl]piperazin-1-yl}-2-azaspiro[3.4]octane-2-carboxylate], under setting [3], the EC50 came to 347 nM. The Emax under setting [4] was determined as 72.3%.
